Row | SMILES | melting point [°C]
1 | O=c1c(-c2ccccc2)c(-c2ccccc2)oc2cc(OCC3CO3)ccc12 (stereo not drawn) | 143 to 145
2 | O=C(Oc1cccc2sc(-c3ccc(OCCN4CCCC4)cc3)c(C(=O)c3ccc(F)cc3)c12)c1ccc(F)cc1 | 58 to 63
3 | CNc1nc(C)c(-c2ccnc(Nc3ccc(N4CCNCC4)cc3)n2)s1 | 253 to 255
4 | CC(C)n1nc(-c2c(-c3ccccc3)nn3ccc(C(=O)NC4CC4)cc23)ccc1=O | 184 to 185
5 | CC1(C)CSc2c(-c3ccccc3)c(-c3ccc(Cl)cc3)cn2C1 | 147 to 148
6 | CC(C)n1nc(-c2c(NC3CC3)nc(N)nc2-c2ccccc2)ccc1=O | 237 to 239
7 | Cc1cc(N)n(-c2c(Cl)cc(Cl)cc2Cl)n1 | 132 to 134
8 | CCc1cc2c(s1)N(C)C(=O)C(OC(=O)Nc1cccc(C)c1)N=C2c1ccccc1Cl (stereo not drawn) | 181 to 182
9 | Cn1ncc2c(=O)n3c(nc21)SCCCC3 | 157
10 | NOP(=O)(c1ccccc1)c1ccccc1 | 104
11 | Cc1ccc(C)n1-c1ccc(/C=C/C(=O)N(C)O)cc1 | 143 to 145
12 | NS(=O)(=O)c1cc2cc(C(=O)NCC(O)CO)sc2s1 (stereo not drawn) | 117 to 118
13 | CCCCCCC(C(=O)O)N1Cc2cc(-c3ccccc3-c3nn[nH]n3)ccc2N1 (stereo not drawn) | 113 to 120
14 | Nc1nc2c(ncn2[C@H]2CC[C@@H](CO)C2)c(=O)[nH]1 | 269
15 | CC#CCCn1ncc2c(OCC)c(C(=O)OCC)c(C)nc21 | 94 to 95
16 | O=C(O)CNc1ccccc1F | 126 to 127
17 | CCC(Cn1cncn1)(C(N)=O)c1ccc(Cl)cc1 (stereo not drawn) | 139 to 140
18 | CCCCC/C=C\C/C=C\CCCCCCC[C@@H](C[C@@H]1OC(=O)[C@H]1CC)OC(=O)[C@H](CC(C)C)NC=O | 48 to 53
19 | CC(C)N(C(=S)NC(=O)c1ccccc1)c1ccc2c(c1)OCO2 | 152 to 154
20 | CC1(C)OC(=O)Nc2c(Br)cc(-c3ccc(F)c(Cl)c3)cc21 | 194 to 195
21 | OC[C@H]1O[C@@H]1c1ccc(Cl)cc1 | 59 to 68
22 | CN(C(=O)N[C@@H](Cc1ccc(Nc2nccc3ccncc23)cc1)C(=O)O)c1ccccc1Cc1ccccc1 | 157
23 | O=S(=O)(c1ccc(Oc2ccccc2)cc1)N1CC1 | 136 to 138
24 | COc1cc(C(=O)O)cc2c1CC(C)O2 (stereo not drawn) | 180 to 182
25 | CCCCC[C@@H](CC(=O)NO)C(=O)N[C@H](CC(C)C)C(=O)N[C@@H](C)C(N)=O | 134 to 136

Row | SMILES | melting point [°C]
26 | CN(CC#Cc1cc(CN2CCOCC2)cc2c(=O)c(C(=O)NCc3ccc(Cl)cc3)cn(C)c12)CCO | 148 to 149
27 | CNC(=O)CN(C)Cc1ccc(CCn2cnc3cc(-c4ccc(Cl)cc4)sc3c2=O)cc1 | 146 to 149
28 | CN(C)C=CC(=O)c1cccc(C(F)(F)F)c1 | 60.5 to 62
29 | O=C(CCCC(Cl)=C(C(=O)O)c1csc(NC(=O)OCc2ccccc2)n1)OCc1ccccc1 | 146 to 147
30 | COC1C2=C3C(=CN1OC)OCCC3CC(CCC#N)C2 (stereo not drawn) | 105 to 107
31 | COC(=O)C(NC(=O)C=Cc1ccccc1)C(=O)C(C)C (stereo not drawn) | 74 to 75
32 | NS(=O)(=O)c1cccc(-c2cn(-c3nc(-c4ccc(C(F)(F)F)cc4)cc(C(F)(F)F)n3)cn2)c1 | 198
33 | NS(=O)(=O)c1cccc(NC(=O)c2cnn3c(C(F)(F)F)cc(-c4ccc(C(F)(F)F)c(F)c4)nc23)c1 | 259
34 | CC(C)(C)OC(=O)NC1C(=O)N(C(O)C(=O)OC(c2ccccc2)c2ccccc2)C1CBr (stereo not drawn) | 133 to 137
35 | CCOC(=O)c1cc(O)c(C(=O)c2ccc(Cl)cc2)c([N+](=O)[O-])c1 | 188 to 192
36 | CC(=O)N1CCCC1CN1C(=O)C2(COc3cc4c(cc32)CCO4)c2ccccc21 (stereo not drawn) | 103 to 108
37 | COC(=O)C1=C(C)NC(C)=C(c2nnco2)C1c1cccc(Cl)c1Cl (stereo not drawn) | 225 to 229
38 | CC(C)N(C[C@@H]1CCC[C@H](CN(C(=O)Nc2ccc(N(C)C)cc2)C(C)C)C1)C(=O)Nc1ccc(N(C)C)cc1 | 139 to 141
39 | NCCC(C(N)=O)c1ccc(O)cc1 (stereo not drawn) | 168 to 170
40 | COc1ccc(S(=O)(=O)N2C(=O)C(OCC(=O)N3CCN(c4ccncc4)CC3)(c3ccccc3OC(C)C)c3cc(Cl)ccc32)c(OC)c1 (stereo not drawn) | 201 to 203
41 | O=C(Nc1ccc(-n2nc(C(F)(F)F)cc2C(F)(F)F)cc1)c1ccc(F)cc1Cl | 155 to 157
42 | CC(=O)OCC1COc2c(ccc(F)c2F)N1 (stereo not drawn) | 73 to 74
43 | CCOC(=S)c1ccc2scc(C)c2c1 | 67 to 69
44 | COc1cc2c(cc1Nc1ncc3ccc(-c4ccccc4OC)n3n1)CN(C)C2 | 136 to 141
45 | Cn1ncc(/C=C/C(=O)Nc2ccc(CC(=O)NN)cc2)c1-c1ccc(F)cc1 | 273 to 274
46 | CCOP(=O)(Cc1ccc(NC(=O)C(Cc2ccccc2)C(=O)O)cc1)OCC (stereo not drawn) | 160 to 161
47 | O=C(Nc1ccc(Oc2cccc(Cl)c2)c(Cl)c1)c1ccccn1 | 91.5 to 93.5
48 | Cn1c(SCC(=O)C23CC4CC(CC(C4)C2)C3)nnc1-c1cccs1 | 156 to 157
49 | CCn1nc(C)c(-c2ccc3c(c2)NC(=O)CO3)c1-c1ccc(F)cc1 | 161
50 | Clc1cc(Cl)c2nc[nH]c2n1 | 263

Row | SMILES | melting point [°C]
51 | CC(OCc1cc2nc(Cl)ccc2n1S(=O)(=O)c1ccc2nc(N)sc2c1)C(=O)O (stereo not drawn) | 218 to 220
52 | Clc1ccc(COCCOc2ccc(-c3ccccc3)cc2)cc1 | 85 to 87
53 | N#Cc1ccc(C2CC(=O)N(Cc3ccccc3)Cc3cncn32)cc1 (stereo not drawn) | 65
54 | O=S1NC(Cc2coc3ccc(Cl)cc23)=NO1 (stereo not drawn) | 140
55 | c1cc(Nc2ccc(-n3cccc3)cn2)cc(-n2ccnc2)c1 | 152 to 156
56 | COc1nc(NCCc2ccc(OC(F)F)cc2)nc(-c2ccc(Cl)c(C(C)(C)O)c2)n1 | 127
57 | C=CCOc1ccc(C(C)=O)c(NC(C)=O)c1 | 63 to 64
58 | Cc1cc(C(=O)N(C2CCCCC2)C2CCCC2)ccc1Cn1cnc2ncccc21 | 191 to 192
59 | Cc1cc(-c2cnn3c(C(F)(F)F)cc(-c4ccc(Cl)c(C)c4)nc23)ccn1 | 240
60 | COCCC(=O)N[C@H]1CC[C@H](CCN2CCN(c3ncc(C)c4occc34)CC2)CC1 | 177
61 | CCCCOC(CCN)(c1ccccc1)c1ccccc1 | 50 to 54
62 | O[C@@H]1CCC[C@H]1Nc1ccc(Cl)c(Cl)c1 (relative stereo) | 167 to 168
63 | CCCc1c(OCCCSc2nnc(NC(=O)C(=O)OCC)s2)ccc(C(C)=O)c1O | 146 to 147
64 | CC(=O)Cc1nc2cc(C)ccc2c(=O)o1 | 142 to 144
65 | COc1cc2cc(CO)nc(-c3ccc([N+](=O)[O-])cc3)c2cc1OC | 260 to 263
66 | COc1cc(C(=O)c2c(C)c(C(=O)OCc3ccccc3)c3cc(NC(=O)OC(C)(C)C)ccn23)ccc1[N+](=O)[O-] | 95
67 | CCOc1cc(OC)cc(OC(=O)CC)c1C(=O)C=Cc1ccc(OC)cc1 | 77.5
68 | Cc1cc(OC2CCN(C(=O)OC(C)(C)C)CC2)ccc1[N+](=O)[O-] | 104 to 106
69 | CCCCCS(=O)(=O)NC(=O)CCc1ccc(OCCOC)cc1OCc1ccc(Cl)cc1Cl | 107 to 108
70 | CCOC(=O)C1(C(=O)Nc2ccc(Cl)cc2CC)CC1 | 77 to 80
71 | Cc1cc(C=O)cc(Oc2[nH]c(=O)[nH]c(=O)c2C(C)C)c1 | 241 to 242
72 | CCOC(=O)c1ccc(OCc2nc(-c3ccco3)oc2C)c(OC)c1 | 133 to 134
73 | Nc1nc(F)nc(OC(F)(F)F)n1 | 138 to 139
74 | Cc1cc(OCc2ccc(-c3ccc(OC(F)(F)F)cc3)nc2C2CC2)ccc1OC(C)(C)C(=O)O | 131 to 133
75 | CCCCCCCCCCCCSC(C)(C)C(=O)O | 62 to 64

Row | SMILES | melting point [°C]
76 | O=C(CC1CCCCCC1=O)c1ccccc1 (stereo not drawn) | 42 to 44
77 | COc1ccc2c(c1)cc1cnc(Nc3ccc(N4CCOCC4)cc3OC)nn12 | 152 to 164
78 | O=C(Nc1ccccc1)NN1CCN(CCc2c[nH]c3ccccc23)CC1 | 168 to 171
79 | CCCCCC(CC(=O)Nc1cc(C(N)=O)ccc1C(C)(C)C)c1cccc(OC)c1OC (stereo not drawn) | 89 to 90
80 | O=C(O)c1cncc(O)c1 | > 260
81 | CC(C)c1cccc(C(C)C)c1NC(=O)Nc1nnn[nH]1 | > 240
82 | CC(=O)NC[C@H]1CN(c2ccc(-n3nccc3-c3ccncc3)c(F)c2)C(=O)O1 | 74.5 to 76.3
83 | O=C(Nc1ccc2nc(CN3CCCC3)ccc2c1)c1ccc(-c2ccccc2)cc1 | 181 to 183
84 | CCC(=O)c1ccc2c(ccn2S(=O)(=O)c2ccc(C)cc2)c1 | 162 to 164
85 | CC(C)(CN)c1ccc(-n2c(-c3cc(-c4cnc5ccccc5c4)ccn3)c[nH]c2=O)cc1 | 244 to 247
86 | CCCCSc1nc(CCC)n(Cc2ccc(-c3ccccc3S(=O)(=O)NC(=O)NCc3ccccc3)cc2)c1C(=O)C(=O)O | 192
87 | CC(Cl)(Cl)C(NC(=O)c1ccc(Cl)cc1)NC(=NC#N)Nc1ccc(F)nc1 (stereo not drawn) | 206 to 207
88 | COC(=O)CSC1c2ccccc2C=Cc2ccccc21 | 74 to 76
89 | O=CNC1=NN(c2ccc(Cl)c(Cl)c2)CC1 | 151 to 153
90 | COC(=O)C(=C/c1cc(OC)c(OC)c(OC)c1)/C(=C\c1ccccc1)C(N)=O | 144 to 146
91 | COC(=O)NC1CCc2ccsc2C1 (stereo not drawn) | 156 to 157
92 | Cc1ccc(-c2occc2C(=O)O)cc1 | 166
93 | c1cnc2c(N3CCC(N4CCN(c5cccc6[nH]ccc56)CC4)CC3)cccc2c1 | 256
94 | CN(C)c1ccc2c(c1)C(=O)N(c1ccc(CCCC(=O)OC(C)(C)C)cc1)C2 | 115 to 116
95 | CNC(=O)c1ccccc1Nc1nc(Nc2ccc3c(c2)N(C)CCN(S(C)(=O)=O)C3)ncc1Cl | 200 to 207
96 | O=C(NC1CCCC1)N1CCc2[nH]cnc2C1 | 225
97 | CC(C)Oc1cc(CCCOc2ccc3ccccc3c2CC(=O)O)n(Cc2ccc(Cl)cc2Cl)n1 | 120 to 122
98 | COc1ccc(Nc2ncnc(NCCO)n2)cc1 | 160 to 164
